In US20090274773A1, “ANTIPROLIFERATIVE COMBINATION COMPRISING CYC-682 AND A CYTOTOXIC AGENT” (Cyclacel Limited, priority 2005, published 2009):
Read-outs that look alike come from different tables or passages of the source.

Experiments:
Assay type in all cases: cell-based, human
HCT116 cancer cell line = assay: CYC682 drug-combination study (MTT, Chou and Talalay combination index, isobolograms); settings: HCT116
Method: (§1) For simultaneous drug exposure, cells were seeded at 2×10^3 cells/well in 96-well plates and treated 24 hours later with increasing concentrations of CYC682 alone or with various concentrations of another drug corresponding to the IC20, IC40 or IC60 values. After approximately four doubling times (120 hours), the growth inhibitory effect was measured by the MTT assay.
(§2) Cells were seeded at 2×10^3 cells/well in 96-well plates and allowed to grow for 24 hour. Cells were then exposed to various concentrations of the first drug for 1 hour/24 hours/48 hours, the drug was removed, the cells were washed and the second drug was added. After additional drug exposure, the second drug was removed, the cells were washed and incubated in drug-free medium for 72 hours. Growth inhibition was then determined by the MTT assay.
(§3) Effects of drug combinations were evaluated using the Chou and Talalay method which is based on the median-effect principle (Chou T C, Talalay P. Quantitative analysis of dose-effect relationships: the combined effects of multiple drugs or enzyme inhibitors. Adv Enzyme Regul. 1984; 22:27-55). […] On the basis of the slope of the curve for each drug in a combination, it can be determined whether the drugs have mutually nonexclusive effects (e.g., independent or interactive modes of action).
(§4) The combination index (CI) is then determined by the equation:
(§5) CI=[(C)1/(Cx)1]+[(C)2/(Cx)2]+[α(C)1(C)2/(Cx)1(Cx)2],
(§6) where (Cx)1 is the concentration of drug 1 required to produce an x percent effect of that drug alone, and (C)1, the concentration of drug 1 required to produce the same x percent effect in combination with (C)2. If the mode of action of the drugs is mutually exclusive or nonexclusive, then α is 0 or 1, respectively. CI values will be calculated with this equation using different values of fa (i.e., for different degrees of cell growth inhibition). CI values of <1 indicate synergy, the value of 1 indicates additive effects, and values >1 indicate antagonism. Data were analyzed on an IBM-PC computer using concentration-effect analysis for microcomputer software (Biosoft, Cambridge, UK). For statistical analysis and graphs we will use Instat and Prism software (GraphPad, San Diego, USA). The dose-effect relationships for the drugs tested, alone or in paired combinations, were subjected to median-effect plot analysis to determine their relative potency (IC50), shape (m), and conformity (r) in each selected cell line. As stated above, the IC50 and m values were respectively used to calculate synergism and antagonism on the basis of the CI equation. Results were expressed as the mean±standard deviation of at least 3 experiments performed in duplicate. In each experiment, cells were exposed to the paired combinations for 48 hours as described above. Means and standard deviations were compared using Student's t-test (two-sided p value).
(§7) The effect of sequential and simultaneous exposure (FIG. 2) to CYC682 with oxaliplatin, doxorubicin, docetaxel and gemcitabine was studied in two sensitive colon cancer cell lines—COLO205 and HCT116 using combination indices that represent an affected fraction for the concentration of drugs corresponding to IC50 as previously described by Chou and Talalay.

COLO205 cancer cell line = assay: as above; settings: COLO205
Method: as §1, §2, §3, §4, §5, §6, §7

NSCLC cell line H1299 = assay: CNDAC combinations (alamar blue, Calcusyn Combination Index); settings: for Combination Index at ED50, Concomitant / Combination Index at ED75, Concomitant / Combination Index at ED90, Concomitant: simultaneous treatment 72 h
Method: Experiments in the NSCLC cell lines H1299 or RERF-LC-MA were performed in 96-well plates, with cells seeded at a density of 3,000/well, in DMEM containing 10% (v/v) FCS. Stock solutions of all drugs were made up in dimethylsulfoxide (DMSO), with the exception of gemcitabine, which was dissolved in 0.9% (w/v) sterile saline solution.
For experimental assessment of potential synergistic interactions, the concomitant treatment regime involved simultaneous treatment of cells with CNDAC and the other agent under investigation for 72 h, alongside suitable controls of cells treated with the individual compounds alone for 72 hr. In the sequential treatment regimes, one drug was added to the cells 2 h after plating, and left for 24 h. Media was then aspirated, replaced with fresh media containing the second drug and incubated for 72 h. The two individual treatment controls for the sequential treatment regime involved substituting one of the drug treatments with drug-free media. […] Drug interactions were analysed using the Calcusyn software package (BioSoft, Cambridge, U.K.) described below.

HOP92 = assay: MTT growth inhibition assay, single agent; settings: read-out: Antiproliferative effects IC50s (MTT assay)
Method: (§8) All cell lines were obtained from the ATCC (Rockville, Md.). Cells were grown as monolayers in RPMI medium supplemented with 10% fetal calf serum (Invitrogen, Cergy-Pontoise, France), 2 mM glutamine, 100 units/ml penicillin and 100 μg/ml streptomycin. All cells were split twice a week using trypsin/EDTA (0.25% and 0.02%, respectively; Invitrogen, Cergy-Pontoise, France) and seeded at a concentration of 2.5×10^4 cells/ml. All cell lines were tested regularly for Mycoplasma contamination by PCR using a Stratagene kit (La Jolla, Calif.).
(§9) The MTT assay was carried out as described previously (Hansen M B, Nielsen S E, Berg K. Re-examination and further development of a precise and rapid dye method for measuring cell growth/cell kill. J Immunol Methods. 1989 May 12; 119(2):203-10). In brief, cells were seeded in 96-well tissue culture plates at a density of 2×10^3 cells/well. Cell viability was determined after a 120-hour incubation, by the calorimetric conversion of yellow, water-soluble tetrazolium MTT (3-[4,5-dimethylthiazol-2-yl]-2,5-diphenyltetrazolium bromide; Sigma, Saint-Quentin Fallavier, France), into purple, water-insoluble formazan. This reaction is catalyzed by mitochondrial dehydrogenases and is used to estimate the relative number of viable cells (Mosmann, T, Rapid calorimetric assay for cellular growth and survival: application to proliferation and cytotoxicity assays. J Immunol Methods. 1983 Dec. 16; 65 (1-2):55-63). Cells were incubated with 0.4 mg/ml MTT for 4 hours at 37° C. After incubation, the supernatant was discarded, the cell pellet was resuspended in 0.1 ml of DMSO and the absorbance was measured at 560 nm using a microplate reader (Dynatech, Michigan). Wells with untreated cells or with drug-containing medium without cells were used as positive and negative controls, respectively. Growth inhibition curves were plotted as a percentage of untreated control cells.
(§10) The cells were seeded at 2×10^3 cells/well in 96-well plates and treated 24 hours later with increasing concentrations of CYC682. After incubation times of 1 hour, 24 hours or 48 hours, the cells were washed and post-incubated in drug-free medium for 72 hours. Growth inhibition was then determined by the MTT assay.

HCC2998 = assay: MTT growth inhibition assay, single agent; settings: read-out: Antiproliferative effects IC50s (MTT assay)
Method: as §8, §9, §10

HOP62 = assay: MTT growth inhibition assay, single agent; settings: read-out: Antiproliferative effects IC50s (MTT assay)
Method: as §8, §9, §10

IGROV1 = assay: MTT growth inhibition assay, single agent; settings: read-out: Antiproliferative effects IC50s (MTT assay)
Method: as §8, §9, §10

MCF7 = assay: MTT growth inhibition assay, single agent; settings: 24 hours exposure, read-out: Antiproliferative effects IC50s (MTT assay)
Method: as §8, §9, §10

COLO205 = assay: MTT growth inhibition assay, single agent; settings: read-out: Antiproliferative effects IC50s (MTT assay)
Method: as §8, §9, §10

MDA-MB-435 = assay: MTT growth inhibition assay, single agent; settings: 24 hours exposure, read-out: Antiproliferative effects IC50s (MTT assay)
Method: as §8, §9, §10

OVCAR1 = assay: MTT growth inhibition assay, single agent; settings: 24 hours exposure, read-out: Antiproliferative effects IC50s (MTT assay)
Method: as §8, §9, §10

HT29 = assay: MTT growth inhibition assay, single agent; settings: read-out: Antiproliferative effects IC50s (MTT assay)
Method: as §8, §9, §10

HCT116 = assay: MTT growth inhibition assay, single agent; settings: read-out: Antiproliferative effects IC50s (MTT assay)
Method: as §8, §9, §10

[1] = named agent given prior to CYC682
[2] = named agent in combination with CNDAC, H1299
[3] = CYC682 given prior to named agent
[4] = named agent in combination with CNDAC, H1299, CNDAC 24 h then other agent 72 h
[5] = named agent in combination with CNDAC, H1299, named agent 24 h then CNDAC 72 h

With `Nc1ccn([C@@H]2O[C@H](CO)[C@@H](O)C2(F)F)c(=O)n1` [Gemcitabine, 2′-deoxy-2′,2′-difluorocytidine] the “Interaction with CYC682 (isobologram)” value (HCT116 cancer cell line; [1]) was “synergistic”, the “Interaction with CYC682 (isobologram)” value (COLO205 cancer cell line; [1]) was “synergistic” and the “Interaction with CNDAC at ED50 (in words)” value (NSCLC cell line H1299; H1299, concomitant treatment) was “synergy”. The “Interaction with CNDAC (in words), summary of Table 3” value (NSCLC cell line H1299; combination with CNDAC, regime not specified) was “synergistic drug interactions”, the “Combination Index at ED50, Concomitant” value (NSCLC cell line H1299; [2]) was 0.65 and the “Combination Index at ED75, Concomitant” value (NSCLC cell line H1299; [2]) was 1.83. For the same compound, the “Combination Index at ED90, Concomitant” value (NSCLC cell line H1299; [2]) was 6.11, the IC50 (HOP92; Homo sapiens, HOP-92, 24 hours exposure) was 20 ± 4 nM and the IC50 (HCC2998; Homo sapiens, HCC 2998, 24 hours exposure) was 10 ± 2 nM. For the same compound, the IC50 (HOP62; Homo sapiens, HOP-62, 24 hours exposure) was 10 ± 2 nM, the IC50 (IGROV1; Homo sapiens, IGROV-1, 24 hours exposure) was 20 ± 4 nM and the IC50 (MCF7; Homo sapiens) was 10 ± 2 nM. For the same compound, the IC50 (COLO205; Homo sapiens, COLO 205, 24 hours exposure) was 200 ± 100 nM, the IC50 (MDA-MB-435; Homo sapiens) was 40 ± 8 nM and the IC50 (OVCAR1; Homo sapiens) was 1200 ± 200 nM. The IC50 (HT29; Homo sapiens, HT-29, 24 hours exposure) was 15 ± 3 nM and the IC50 (HCT116; Homo sapiens, HCT-116, 24 hours exposure) was 50 ± 10 nM.

In the case of `O=C(O)C(=O)O.[NH-][C@@H]1CCCC[C@H]1[NH-].[Pt+2]` [Oxaliplatin], the “Interaction with CYC682 (isobologram)” value (HCT116 cancer cell line; [3]) is reported as “synergistic activity”, the “Interaction with CYC682 (isobologram)” value (HCT116 cancer cell line; [1]) is reported as “synergistic activity” and the “Interaction with CYC682 (isobologram)” value (COLO205 cancer cell line; [3]) is reported as “synergy”. It also gave an IC50 (HOP92; 24 hours exposure) of 1400 ± 200 nM, an IC50 (HCC2998; 24 hours exposure) of 4000 ± 1400 nM and an IC50 (HOP62; 24 hours exposure) of 200000 ± 40000 nM. The IC50 (IGROV1; 24 hours exposure) was 107000 ± 21000 nM, the IC50 (MCF7) was 35000 ± 7000 nM and the IC50 (COLO205; 24 hours exposure) was 8000 ± 1600 nM. For the same compound, the IC50 (MDA-MB-435) was 37000 ± 21000 nM, the IC50 (OVCAR1) was 50000 ± 10000 nM and the IC50 (HT29; 24 hours exposure) was 60000 ± 12000 nM. It also gave an IC50 (HCT116; 24 hours exposure) of 20000 ± 4000 nM.

With `CCC1=C[C@@H]2CN(C1)Cc1c([nH]c3ccccc13)[C@@](C(=O)OC)(c1cc3c(cc1OC)N(C)[C@H]1[C@@](O)(C(=O)OC)[C@H](OC(C)=O)[C@]4(CC)C=CCN5CC[C@]31[C@@H]54)C2` [Vinorelbine] the “Interaction with CNDAC (in words)” value (NSCLC cell line H1299; H1299, all three of the treatment regimes tested) was “synergy”, the “Combination Index at ED75, CNDAC pretreatment” value (NSCLC cell line H1299; [4]) was 0.67 and the “Combination Index at ED90, CNDAC pretreatment” value (NSCLC cell line H1299; [4]) was 0.67. For the same compound, the “Combination Index at ED50, CNDAC pretreatment” value (NSCLC cell line H1299; named agent in combination with CNDAC, H1299, CNDAC 24 h then other agent 72 h, C.I. <1 synergistic, 1 additive, >1 antagonistic) was 1.04, the “Combination Index at ED50, Other (named agent) pretreatment” value (NSCLC cell line H1299; [5]) was 0.60 and the “Combination Index at ED75, Other (named agent) pretreatment” value (NSCLC cell line H1299; [5]) was 0.56. The “Combination Index at ED90, Other (named agent) pretreatment” value (NSCLC cell line H1299; [5]) was 0.66, the “Combination Index at ED50, Concomitant” value (NSCLC cell line H1299; [2]) was 0.63 and the “Combination Index at ED75, Concomitant” value (NSCLC cell line H1299; [2]) was 0.97. For the same compound, the “Combination Index at ED90, Concomitant” value (NSCLC cell line H1299; [2]) was 2.25.
